Measurements: patent publication US20260159497A1, “SOLID FORMS OF A COMPLEMENT FACTOR B INHIBITOR” (Novartis Pharma AG, priority 2022, published 2026)
Where two headings read alike, the source gives them in different places.

How the values were obtained:
[1] = Pharmacokinetic study after oral dosing, rat; type: in vivo, SD Rat; settings: for Cmax / AUC(0-t) / concentration at 24 h: male, SD (Sprague-Dawley), rat, in vivo, po, oral, suspension in 0.5% methocel + 0.1% tween 80 in water, SD Rat male, Fed, 5 mL/kg; for AUC(0-t): read-out: AUC0-24 h; for concentration at 24 h: read-out: C24 h
Procedure: The pharmacokinetic profile of (S)-4-(2,2-difluoro-7-((5-methoxy-7-methyl-1H-indol-4-yl)methyl)-7-azaspiro[3.5]nonan-6-yl)benzoic acid was assessed in rats, dogs or non-human primates (NHPs) as the amorphous compound as a solution in 20% kleptose in water and as a suspension of Form A in 0.5% methocel+0.1% tween 80 in water.
Amorphous (S)-4-(2,2-difluoro-7-((5-methoxy-7-methyl-1H-indol-4-yl)methyl)-7-azaspiro[3.5]nonan-6-yl)benzoic acid was weighed into a glass vial with a magnetic stir bar to give formulations at dose concentrations of 0.1-1000 mg/kg. Approx. ⅓ the final volume of 20% kleptose (hydroxypropyl β-cyclodextrin, Aldrich, CAS #128446-35-5) in water was added to the vial (to afford either a 5 mL/kg or 10 mL/kg dose volume, depending on the species). The mixture was basified to a pH of 8.5 to 10 using dropwise addition of 2-5 M aqueous NaOH solution, with pH monitoring. The suspension was stirred, vortexed, and sonicated for 15-20 minutes to afford a homogenous mixture. The second ⅓ of the final volume of 20% kleptose was added to the vial and further stirred, vortexed, and sonicated for 15-20 minutes to afford a homogenous mixture. The pH was monitored and further pH adjustment to pH 8.5 to 10, if necessary, can be applied. The final ⅓ the final volume of 20% kleptose was added to the vial and further stirred, vortexed, and sonicated for 15-20 minutes to afford a homogenous solution. The pH of the solution was adjusted to a pH of 7.5 to 8.0 with dropwise addition of 1.0 M aqueous HCl solution with gentle stirring. The formulation should remain in solution.
Form A crystalline (S)-4-(2,2-difluoro-7-((5-methoxy-7-methyl-1H-indol-4-yl)methyl)-7-azaspiro[3.5]nonan-6-yl)benzoic acid was weighed into a glass vial with a magnetic stir bar to give formulations at dose concentrations of 0.1-1000 mg/kg. The crystalline material should preferably have a particle size with a D50 below 50 μm, and ideally with a D50 below 5 μm. The desired volume of 0.5% methocel (viscosity 400 cP, Aldrich, CAS #9004-67-5)/0.1% tween-80 (Aldrich, CAS #9005-65-6) was added (to afford a 5 mL/kg dose volume). The contents of the vial were stirred at 400-500 rpm on a stir-plate. Gentle vortex or bath sonication can be applied to break down any large clumps. The vial should be mixed well to ensure homogeneity right before animal dosing.

Flow properties = type: physicochemical
Excerpt: See U.S. Pat. No. 11,642,315.

[2] = 30 mg/kg, 30 mg/kg, particle size D50 = 5.1 μm
[3] = 300 mg/kg, 300 mg/kg, particle size D50 = 5.1 μm
[4] = 300 mg/kg, 300 mg/kg, particle size D50 = 101 μm

Row | Compound | Cmax [1, 2] | AUC(0-t) [1, 2] | concentration at 24 h [1, 2] | Cmax [1, 3] | AUC(0-t) [1, 3] | concentration at 24 h [1, 3] | Cmax [1, 4] | AUC(0-t) [1, 4] | concentration at 24 h [1, 4] | Cmax, AUC0-24 and C24h compared with the amorphous form ([1]; oral dosing, smaller particle size) | bulk density (Flow properties) | flowability (Flow properties)
1 | COc1cc(C)c2[nH]ccc2c1CN1CCC2(C[C@H]1c1ccc(C(=O)O)cc1)CC(F)(F)C2 [Form A, (S)-4-(2,2-difluoro-7-((5-methoxy-7-methyl-1H-indol-4-yl)methyl)-7-azaspiro[3.5]nonan-6-yl)benzoic acid] | 6.1 µM | 79.2 µM·h | 1.9 µM | 157 µM | 958 µM·h | 3.3 µM | 80 µM | 547 µM·h | 2.7 µM | higher |  | 
2 | COc1cc(C)c2[nH]ccc2c1CN1CCC2(C[C@H]1c1ccc(C(=O)O)cc1)CC(F)(F)C2.Cc1ccc(S(=O)(=O)O)cc1 [Form B, (S)-4-(2,2-difluoro-7-((5-methoxy-7-methyl-1H-indol-4-yl)methyl)-7-azaspiro[3.5]nonan-6-yl)benzoic acid p-toluene sulfonate] |  |  |  |  |  |  |  |  |  |  | good bulk density | good flowability
